Where two headings read alike, the source gives them in different places.
How the values were obtained:
Format in all cases: in vivo
[1] = system: Alopecurus myosuroides (ALOMY); test: Test 1B glasshouse assay, post-emergence herbicidal activity against grassy weeds; details: 14 DAA
In short: (§1)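 Percent phytotoxicity (0–100%, 1% steps) was scored visually 14 days after spraying, as the mean of duplicates. Plants grown 14 days under glasshouse control received the herbicide post-emergence, typically 60–120 g/ha with or without 50 g/ha cloquintocet-mexyl safener, in spray containing 0.5% v/v Adigor.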

Avena fatua (AVEFA) [2] = test: as above; details: 14 DAA
In short: as §1

[3] = system: Lolium multiflorum (LOLMU); test: as above; details: 14 DAA
In short: as §1

Poa annua (POAAN) = test: as above; details: 14 DAA
In short: as §1

Setaria viridis (SETVI) = test: as above; details: 14 DAA
In short: as §1

[4] = system: Spring Barley “Harrington”; test: Test 1B glasshouse assay, post-emergence herbicidal activity against cereal crops; details: 14 DAA
In short: (§2)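 Technical compound in IF50 with acetone, diluted into 0.5% v/v Adigor, sprayed post-emergence on 14-day glasshouse plants (22/16 °C, 16 h light, 65% humidity), typically at 60, 90 or 120 g/ha, with or without 50 g/ha cloquintocet-mexyl safener. Phytotoxicity scored visually 14 DAA (0–100%), mean of two replicates.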

Winter Wheat “Hereward” = test: as above; details: 14 DAA
In short: as §2

Winter Barley “Suzuka” = test: as above; details: 14 DAA
In short: as §2

Spring Wheat “Teal” = test: as above; details: 14 DAA
In short: as §2

[5] = system: Alopecurus myosuroides (ALOMY); test: Test 1A glasshouse assay, post-emergence herbicidal activity; details: Alopecurus myosuroides, 312 h, read-out: Post-emergence Herbicidal Activity (% Phytotoxicity) ALOMY
In short: (§3)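 Post-emergence spray at 8 d after sowing; vehicle acetone/water 50:50 + 0.5% Tween 20. Glasshouse 24/16 °C, 14 h light, 65% RH, watered 2×/day. Visual phytotoxicity (%) at 13 DAA.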

[6] = system: Echinochloa crus-galli (ECHCG); test: as above; details: Echinochloa crus-galli, 312 h, read-out: Post-emergence Herbicidal Activity (% Phytotoxicity) ECHCG
In short: as §3

Lolium perenne (LOLPE) [7] = test: as above; details: Lolium perenne, 312 h, read-out: Post-emergence Herbicidal Activity (% Phytotoxicity) LOLPE
In short: as §3

Avena fatua (AVEFA) [8] = test: as above; details: Avena fatua, 312 h, read-out: Post-emergence Herbicidal Activity (% Phytotoxicity) AVEFA
In short: as §3

[9] = system: Alopecurus myosuroides (ALOMY); test: Test 1A glasshouse assay, pre-emergence herbicidal activity; details: 312 h, read-out: Pre-emergence herbicidal activity (% phytotoxicity) ALOMY
Description: (§4) Seeds of a variety of test species were sown in standard soil in pots. After cultivation for one day (pre-emergence) or after 8 days cultivation (post-emergence) under controlled conditions in a glasshouse (at 24/16° C., day/night; 14 hours light; 65% humidity), the plants were sprayed with an aqueous spray solution derived from the formulation of the technical active ingredient in acetone/water (50:50) solution containing 0.5% Tween 20 (polyoxyethelyene sorbitan monolaurate, CAS RN 9005-64-5). The test plants were then grown under controlled conditions in a glasshouse (at 24/16° C., day/night; 14 hours light; 65% humidity) and watered twice daily. 13 days after application of the test herbicide, for pre- and post-emergence, the test was evaluated visually for percentage phytotoxicity to the plant (where 100%=total damage to plant; 0%=no damage to plant).
(§5) Test plants: Lolium perenne (LOLPE), Alopecurus myosuroides (ALOMY), Echinochloa crus-galli (ECHCG), and Avena fatua (AVEFA); these are all grassy monocotyledonous weeds.

[10] = system: Echinochloa crus-galli (ECHCG); test: as above; details: 312 h, read-out: Pre-emergence herbicidal activity (% phytotoxicity) ECHCG
Description: as §4, §5

Lolium perenne (LOLPE) [11] = test: as above; details: 312 h, read-out: Pre-emergence herbicidal activity (% phytotoxicity) LOLPE
Description: as §4, §5

Avena fatua (AVEFA) [12] = test: as above; details: 312 h, read-out: Pre-emergence herbicidal activity (% phytotoxicity) AVEFA
Description: as §4, §5

[13] = 60 g/ha herbicide, 0 g/ha cloquintocet-mexyl
[14] = 60 g/ha herbicide, 50 g/ha cloquintocet-mexyl
[15] = application rate 250 g/ha, 13 days after application, visual (100%=total damage; 0%=no damage)
[16] = 250 g/ha, 13 days after application
[17] = 30 g/ha herbicide, 50 g/ha cloquintocet-mexyl

SMILES: Cc1cc(-n2cc(Cl)cn2)cc(C)c1C1C(=O)CC(CCNC(=O)c2ccccn2)C1=O (racemic) [Compound A34, N-[2-[3-[4-(4-chloropyrazol-1-yl)-2,6-dimethyl-phenyl]-2,4-dioxo-cyclopentyl]ethyl]pyridine-2-carboxamide]
- Post-emergence herbicidal activity, percentage phytotoxicity, ALOMY [1, 13]: 65%
- Post-emergence herbicidal activity, percentage phytotoxicity, ALOMY [1, 14]: 73%
- Post-emergence herbicidal activity, percentage phytotoxicity, AVEFA (Avena fatua (AVEFA) [2]; [13]): 100%
- Post-emergence herbicidal activity, percentage phytotoxicity, AVEFA (Avena fatua (AVEFA) [2]; [14]): 100%
- Post-emergence herbicidal activity, percentage phytotoxicity, LOLMU [3, 13]: 83%
- Post-emergence herbicidal activity, percentage phytotoxicity, LOLMU [3, 14]: 90%
- Post-emergence herbicidal activity, percentage phytotoxicity, POAAN (Poa annua (POAAN); [13]): 78%
- Post-emergence herbicidal activity, percentage phytotoxicity, POAAN (Poa annua (POAAN); [14]): 75%
- Post-emergence herbicidal activity, percentage phytotoxicity, SETVI (Setaria viridis (SETVI); [13]): 80%
- Post-emergence herbicidal activity, percentage phytotoxicity, SETVI (Setaria viridis (SETVI); [14]): 85%
- Post-emergence herbicidal activity against cereal crops, percentage phytotoxicity, Spring Barley “Harrington” [4, 13]: 83%
- Post-emergence herbicidal activity against cereal crops, percentage phytotoxicity, Spring Barley “Harrington” [4, 14]: 33%
- Post-emergence herbicidal activity against cereal crops, percentage phytotoxicity, Winter Wheat “Hereward” (Winter Wheat “Hereward”; [13]): 20%
- Post-emergence herbicidal activity against cereal crops, percentage phytotoxicity, Winter Wheat “Hereward” (Winter Wheat “Hereward”; [14]): 5%
- Post-emergence herbicidal activity against cereal crops, percentage phytotoxicity, Winter Barley “Suzuka” (Winter Barley “Suzuka”; [13]): 83%
- Post-emergence herbicidal activity against cereal crops, percentage phytotoxicity, Winter Barley “Suzuka” (Winter Barley “Suzuka”; [14]): 38%
- Post-emergence herbicidal activity against cereal crops, percentage phytotoxicity, Spring Wheat “Teal” (Spring Wheat “Teal”; [13]): 43%
- Post-emergence herbicidal activity against cereal crops, percentage phytotoxicity, Spring Wheat “Teal” (Spring Wheat “Teal”; [14]): 10%
- pest or weed control at 250 g/ha [5]: 90%
- pest or weed control at 250 g/ha [6]: 100%
- pest or weed control at 250 g/ha (Lolium perenne (LOLPE) [7]): 100%
- pest or weed control at 250 g/ha (Avena fatua (AVEFA) [8]): 100%
- inhibition at 250 g/ha [9]: 90%
- inhibition at 250 g/ha [10]: 100%
- inhibition at 250 g/ha (Lolium perenne (LOLPE) [11]): 100%
- inhibition at 250 g/ha (Avena fatua (AVEFA) [12]): 100%

SMILES: CC#Cc1cc(C)c(C2C(=O)CC(CCNC(=O)c3ccccn3)C2=O)c(C)c1 (stereo not shown) [Compound A33]
- pest or weed control at 250 g/ha [5, 15]: 90%
- pest or weed control at 250 g/ha [6, 15]: 100%
- pest or weed control at 250 g/ha (Lolium perenne (LOLPE) [7]; [15]): 100%
- pest or weed control at 250 g/ha (Avena fatua (AVEFA) [8]; [15]): 100%
- inhibition at 250 g/ha [9, 16]: 90%
- inhibition at 250 g/ha [10, 16]: 100%
- inhibition at 250 g/ha (Lolium perenne (LOLPE) [11]; [16]): 100%
- inhibition at 250 g/ha (Avena fatua (AVEFA) [12]; [16]): 80%

SMILES: CCc1cc(-n2cc(Cl)cn2)cc(C)c1C1C(=O)CC(CCNC(=O)c2ccccn2)C1=O (stereo not shown) [Compound A87, N-[2-[3-[4-(4-chloropyrazol-1-yl)-2-ethyl-6-methyl-phenyl]-2,4-dioxo-cyclopentyl]ethyl]pyridine-2-carboxamide]
- Post-emergence herbicidal activity, percentage phytotoxicity, ALOMY [1, 17]: 70%
- Post-emergence herbicidal activity, percentage phytotoxicity, ALOMY [1, 13]: 97%
- Post-emergence herbicidal activity, percentage phytotoxicity, ALOMY [1, 14]: 95%
- Post-emergence herbicidal activity, percentage phytotoxicity, AVEFA (Avena fatua (AVEFA) [2]; [17]): 100%
- Post-emergence herbicidal activity, percentage phytotoxicity, AVEFA (Avena fatua (AVEFA) [2]; [13]): 100%
- Post-emergence herbicidal activity, percentage phytotoxicity, AVEFA (Avena fatua (AVEFA) [2]; [14]): 100%
- Post-emergence herbicidal activity, percentage phytotoxicity, LOLMU [3, 17]: 100%
- Post-emergence herbicidal activity, percentage phytotoxicity, LOLMU [3, 13]: 100%
- Post-emergence herbicidal activity, percentage phytotoxicity, LOLMU [3, 14]: 100%
- Post-emergence herbicidal activity, percentage phytotoxicity, POAAN (Poa annua (POAAN); [17]): 75%
- Post-emergence herbicidal activity, percentage phytotoxicity, POAAN (Poa annua (POAAN); [13]): 83%
- Post-emergence herbicidal activity, percentage phytotoxicity, POAAN (Poa annua (POAAN); [14]): 83%
- Post-emergence herbicidal activity, percentage phytotoxicity, SETVI (Setaria viridis (SETVI); [17]): 73%
- Post-emergence herbicidal activity, percentage phytotoxicity, SETVI (Setaria viridis (SETVI); [13]): 93%
- Post-emergence herbicidal activity, percentage phytotoxicity, SETVI (Setaria viridis (SETVI); [14]): 95%
- Post-emergence herbicidal activity against cereal crops, percentage phytotoxicity, Spring Barley “Harrington” [4, 17]: 0%
- Post-emergence herbicidal activity against cereal crops, percentage phytotoxicity, Spring Barley “Harrington” [4, 13]: 73%
- Post-emergence herbicidal activity against cereal crops, percentage phytotoxicity, Spring Barley “Harrington” [4, 14]: 60%
- Post-emergence herbicidal activity against cereal crops, percentage phytotoxicity, Winter Wheat “Hereward” (Winter Wheat “Hereward”; [17]): 23%
- Post-emergence herbicidal activity against cereal crops, percentage phytotoxicity, Winter Wheat “Hereward” (Winter Wheat “Hereward”; [13]): 43%
- Post-emergence herbicidal activity against cereal crops, percentage phytotoxicity, Winter Wheat “Hereward” (Winter Wheat “Hereward”; [14]): 33%
- Post-emergence herbicidal activity against cereal crops, percentage phytotoxicity, Winter Barley “Suzuka” (Winter Barley “Suzuka”; [17]): 3%
- Post-emergence herbicidal activity against cereal crops, percentage phytotoxicity, Winter Barley “Suzuka” (Winter Barley “Suzuka”; [13]): 83%
- Post-emergence herbicidal activity against cereal crops, percentage phytotoxicity, Winter Barley “Suzuka” (Winter Barley “Suzuka”; [14]): 60%
- Post-emergence herbicidal activity against cereal crops, percentage phytotoxicity, Spring Wheat “Teal” (Spring Wheat “Teal”; [17]): 18%
- Post-emergence herbicidal activity against cereal crops, percentage phytotoxicity, Spring Wheat “Teal” (Spring Wheat “Teal”; [13]): 48%
- Post-emergence herbicidal activity against cereal crops, percentage phytotoxicity, Spring Wheat “Teal” (Spring Wheat “Teal”; [14]): 38%
- pest or weed control at 250 g/ha [5, 15]: 100%
- pest or weed control at 250 g/ha [6, 15]: 100%
- pest or weed control at 250 g/ha (Lolium perenne (LOLPE) [7]; [15]): 100%
- pest or weed control at 250 g/ha (Avena fatua (AVEFA) [8]; [15]): 100%
- inhibition at 250 g/ha [9, 16]: 100%
- inhibition at 250 g/ha [10, 16]: 100%
- inhibition at 250 g/ha (Lolium perenne (LOLPE) [11]; [16]): 100%
- inhibition at 250 g/ha (Avena fatua (AVEFA) [12]; [16]): 90%

SMILES: Cc1cc(C)c(C2C(=O)CC(CCNC(=O)c3c(Cl)c(C)nn3C)C2=O)c(C)c1 (stereo not shown) [Compound A145]
- pest or weed control at 250 g/ha [5, 15]: 100%
- pest or weed control at 250 g/ha [6, 15]: 90%
- pest or weed control at 250 g/ha (Lolium perenne (LOLPE) [7]; [15]): 90%
- pest or weed control at 250 g/ha (Avena fatua (AVEFA) [8]; [15]): 90%
- inhibition at 250 g/ha [9, 16]: 90%
- inhibition at 250 g/ha [10, 16]: 90%
- inhibition at 250 g/ha (Lolium perenne (LOLPE) [11]; [16]): 100%
- inhibition at 250 g/ha (Avena fatua (AVEFA) [12]; [16]): 40%

SMILES: Cc1cc(C)c(C2C(=O)CC(CCNC(=O)c3c(Cl)nn(C)c3Cl)C2=O)c(C)c1 (stereo not shown) [Compound A159]
- pest or weed control at 250 g/ha [5, 15]: 100%
- pest or weed control at 250 g/ha [6, 15]: 90%
- pest or weed control at 250 g/ha (Lolium perenne (LOLPE) [7]; [15]): 100%
- pest or weed control at 250 g/ha (Avena fatua (AVEFA) [8]; [15]): 90%
- inhibition at 250 g/ha [9, 16]: 90%
- inhibition at 250 g/ha [10, 16]: 100%
- inhibition at 250 g/ha (Lolium perenne (LOLPE) [11]; [16]): 100%
- inhibition at 250 g/ha (Avena fatua (AVEFA) [12]; [16]): 80%
